# Experimental data as given in patent US9744196B2, “Composition for parenteral administration, method for producing and method use thereof” (N2 PHARMACEUTICALS LTD, priority 2013, dated 2017).
# Test system: white rats
# Assay: Adaptogenic (antistress) properties, shaker-induced transport stress
# Type: in vivo
# Description: Tests were conducted on 84 white rats and 36 white mice using pharmacological, haematological, biochemical and immunologic assays known in the art. Upon studying beneficial effects of composition A on the organisms of laboratory animals, certain haematological and immunobiological indices of the test and control animals were considered. Haematological parameters were evaluated in blood specimens by methods known in the art: white blood cells count per 1 cubic millimeter using Gorjaev's chamber. The following immunobiological indices were counted: blood protein content, glucose, phagocytosis and a number of other parameters, characterizing condition of an organism. The total protein content in blood serum was measured by refractometric analysis. Refractive index of blood serum depends mainly on the amount of proteins.
# Glucose concentration was measured using the ortho-toluidine method based on staining of glucose compound with ortho-toluidine in acetic acid solution, the intensity of said being proportional to the glucose concentration.
# The test was conducted on 12 rats, 4 animals being in each of three groups. Stress in experimental white rats was induced using a shaking machine simulating transport (physical) stress. The box with animals was placed onto the shaker and held atop the operating machine for 30-40 min. The most informative parameters, characterizing the onset and development of stress response (stress mediators): glucose, total protein and leukocytes (WBC) levels, were measured in blood of the white rats.
# Composition A was administered to the animals of the 1st group intramuscularly 3 days previous to stress induction in a dose of 0.2 ml. 2.5% solution of neuroleptic agent aminazin in a dose of 0.5 mg per capita was administered to the animals of the 2nd group. A normal saline solution was administered intramuscularly to the animals of the 3rd (control) group. Rats' blood examination to estimate the above parameters was performed 1 h and 24 h after stress induction.
# [1] = 24 hours after stress induction
structure (smiles),measurement,setting,value
"CN(C)CCCN1c2ccccc2Sc2ccc(Cl)cc21 [Aminazin, aminazin]",Glucose,1 hour after stress induction,6.46 ± 0.45 mmol/L
same,Leukocytes (WBC),1 hour after stress induction,4.3 ± 0.4 10^3/uL
same,Total protein,1 hour after stress induction,66.0 ± 0.5 g/L
same,Glucose,"1 hour after stress induction, listed as aminazin",6.46 ± 0.45 mmol/L
same,Glucose,[1],6.25 ± 0.3 mmol/L
same,Leukocytes (WBC),[1],6.1 ± 0.3 10^3/uL
same,Total protein,[1],72.4 ± 1.6 g/L
same,Glucose,"24 hours after stress induction, listed as aminazin",6.25 ± 0.3 mmol/L
